The first test concerns the target 5-HT2A receptors (Rattus norvegicus, UniProt P14842). Briefly: in-vitro affinity to 5-HT2A receptors, displacement of [3H]ketanserine (Example A1). The test is classed as binding. Particulars: read-out: HT2A IC50. An excerpt:
The 5-HT2A receptors are exposed both to [^3H]ketanserine (a substance which is known for its affinity to the receptor) and also to the test compound. The decrease in the affinity of [^3H]ketanserine to the receptor is an indication of the affinity of the test substance to the 5-HT2A receptor.
5-HT2A receptors, sequence (P14842 whole entry): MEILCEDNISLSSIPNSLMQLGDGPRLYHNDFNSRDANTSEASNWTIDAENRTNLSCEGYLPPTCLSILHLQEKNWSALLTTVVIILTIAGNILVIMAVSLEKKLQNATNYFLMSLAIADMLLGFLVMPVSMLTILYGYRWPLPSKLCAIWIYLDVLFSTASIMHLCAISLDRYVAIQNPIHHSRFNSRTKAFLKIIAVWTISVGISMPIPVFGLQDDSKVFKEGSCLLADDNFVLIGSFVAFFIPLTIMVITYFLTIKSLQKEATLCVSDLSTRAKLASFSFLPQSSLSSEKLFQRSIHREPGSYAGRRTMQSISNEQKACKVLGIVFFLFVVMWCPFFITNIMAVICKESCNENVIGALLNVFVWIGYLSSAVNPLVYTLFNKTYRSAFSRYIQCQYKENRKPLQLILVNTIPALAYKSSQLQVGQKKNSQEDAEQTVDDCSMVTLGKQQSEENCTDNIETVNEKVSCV
Take `CC1CN(Cc2cnn(-c3ccc(-c4ccccc4)cc3)c2-c2ccccc2F)CC(C)N1` (stereo not shown) [Example 979, 1-[1-Biphenyl-4-yl-5-(2-fluorophenyl)-1H-pyrazol-4-ylmethyl]-3,5-dimethylpiperazine]: the IC50 is 100 nM.
In the case of `CCN1CCN(Cc2cnn(-c3ccc(-c4ccc(F)cc4)cc3)c2-c2cccc(OC)c2)CC1` [Example 938, 1-Ethyl-4-[1-(4′-fluorobiphenyl-4-yl)-5-(3-methoxyphenyl)-1H-pyrazol-4-ylmethyl]-piperazine], the half-inhibitory concentration (IC50) was determined as 35 nM.
Regarding `Fc1ccccc1-c1c(C=CCN2CCOCC2)cnn1-c1ccc(-c2ccccc2)cc1` [Example 908, 4-{3-[1-Biphenyl-4-yl-5-(2-fluorophenyl)-1H-pyrazol-4-yl]allyl}morpholine], the IC50 turned out to be 17 nM.
Take `Fc1ccccc1-c1c(CN2CCN3CCc4ccccc4C3C2)cnn1-c1ccc(-c2ccccc2)cc1` (stereo not shown) [Example 1031, 2-[1-Biphenyl-4-yl-5-(2-fluorophenyl)-1H-pyrazol-4-ylmethyl]-1,3,4,6,7,11b-hexahydro-2H-pyrazino[2,1-a]isoquinoline]: the IC50 came out at 280 nM.
As for `CC1CCN(Cc2cnn(-c3ccc(-c4ccccc4)cc3)c2-c2ccccc2F)CC1` [Example 986, 1-[1-Biphenyl-4-yl-5-(2-fluorophenyl)-1H-pyrazol-4-ylmethyl]-4-methylpiperidine], the half-inhibitory concentration (IC50) was found to be 130 nM.
On to `Fc1ccccc1-c1c(CNC2CCN(Cc3ccccc3)C2)cnn1-c1ccc(-c2ccccc2)cc1` (stereo not shown) [Example 1036, (1-Benzylpyrrolidin-3-yl)-[1-biphenyl-4-yl-5-(2-fluorophenyl)-1H-pyrazol-4-ylmethyl]amine], for which the IC50 was determined as 310 nM.
The same measure, in the same setting: in the case of `CC(C)(C)OC(=O)N1CCC(NCc2cnn(-c3ccc(-c4ccccc4)cc3)c2-c2ccccc2F)C1` (stereo not shown) [Example 1056, tert-Butyl 3-{[1-biphenyl-4-yl-5-(2-fluoro-phenyl)-1H-pyrazol-4-ylmethyl]amino}pyrrolidine-1-carboxylate] it was 460 nM; in that of `COc1ccc(-c2c(CN3CCN(CCN4CCCC4)CC3)cnn2-c2ccc(-c3ccc(F)cc3)cc2)cc1` [Example 954, 1-[1-(4′-Fluorobiphenyl-4-yl)-5-(4-methoxy-phenyl)-1H-pyrazol-4-ylmethyl]-4-(2-pyrroli-din-1-ylethyl)piperazine], 56 nM; in that of `CC(=O)Nc1cccc(-c2ccc(-n3ncc(CN4CCN(C)CC4)c3-c3ccccc3F)cc2)c1` [Example 988, N-{4′-[5-(2-Fluorophenyl)-4-(4-methyl-piperazin-1-ylmethyl)pyrazol-1-yl]biphenyl-3-yl}acetamide], 130 nM.
`O=C(CNCc1cnn(-c2ccc(-c3ccccc3)cc2)c1-c1ccccc1F)Nc1ccc([N+](=O)[O-])cc1` [Example 980, 2-{[1-Biphenyl-4-yl-5-(2-fluorophenyl)-1H-pyrazol-4-ylmethyl]amino}-N-(4-nitrophenyl)-acetamide]: the IC50 amounted to 100 nM.
Take `CN1CCN(Cc2cnn(-c3ccc(-c4ccc(F)cc4F)cc3)c2-c2ccccc2F)CC1` [Example 955, 1-[1-(2′,4′-Difluorobiphenyl-4-yl)-5-(2-fluoro-phenyl)-1H-pyrazol-4-ylmethyl]-4-methyl-piperazine]: the half-maximal inhibitory concentration (IC50) worked out at 56 nM.

The same test, now with this note: target not given; description names affinity to 5-HT2A receptors; read-out: IC50.
For `NCc1cnn(-c2ccc(-c3ccccc3)cc2)c1-c1ccccc1` [(165), C-(1-Biphenyl-4-yl-5-phenyl-1H-pyrazol-4-yl)methylamine], the IC50 came out at 21 nM.
With `Fc1ccccc1-c1c(CNCc2cccnc2)cnn1-c1ccc(-c2ccccc2)cc1` [(89), [1-Biphenyl-4-yl-5-(2-fluorophenyl)-1H-pyrazol-4-ylmethyl]-pyridin-3-ylmethylamine], the IC50 was 180 nM.
In the case of `COCCN(C)Cc1cnn(-c2ccc(-c3ccc(F)cc3)nc2)c1-c1ccccc1F` [(156), {5-(2-Fluorophenyl)-1-[6-(4-fluorophenyl)pyridin-3-yl]-1H-pyrazol-4-ylmethyl}-(2-methoxyethyl)methylamine], the IC50 worked out at 300 nM.
On to `Fc1ccccc1-c1c(CN2CC=CCC2)cnn1-c1ccc(-c2ccccc2)cc1` [(38), 1-[1-Biphenyl-4-yl-5-(2-fluorophenyl)-1H-pyrazol-4-ylmethyl]-1,2,3,6-tetrahydropyridine], for which the IC50 amounted to 170 nM.
With `CN1CCN(Cc2cnn(-c3ccc(-c4ccccc4F)cc3)c2-c2ccco2)CC1` [(103), 1-[1-(2′-Fluorobiphenyl-4-yl)-5-furan-2-yl-1H-pyrazol-4-ylmethyl]-4-methylpiperazine], the concentration for half-maximal inhibition (IC50) was 25 nM.
For the compound `Fc1ccccc1-c1c(CN2CC=CC2)cnn1-c1ccc(-c2ccccc2)cc1` [(30), 1-Biphenyl-4-yl-4-(2,5-dihydropyrrol-1-ylmethyl)-5-(2-fluorophenyl)-1H-pyrazole], the half-inhibitory concentration (IC50) was found to be 36 nM.
Same read-out and setting: in the case of `Fc1ccccc1-c1c(CN2CCC2)cnn1-c1ccc(-c2ccccc2)cc1` [(160), 4-Azetidin-1-ylmethyl-1-biphenyl-4-yl-5-(2-fluorophenyl)-1H-pyrazole] it was 47 nM; in that of `Fc1ccccc1-c1c(CN2CCNCC2)cnn1-c1ccc(C(F)(F)F)cc1` [(86), 1-[5-(2-Fluorophenyl)-1-(4-trifluoromethylphenyl)-1H-pyrazol-4-ylmethyl]piperazine], 43 nM.
Turning to `Fc1ccccc1-c1c(CN2CCN(Cc3ccccc3)CC2)cnn1-c1ccc(-c2ccccc2)cc1` [(24), 1-Benzyl-4-[1-biphenyl-4-yl-5-(2-fluorophenyl)-1H-pyrazol-4-ylmethyl]piperazine], the IC50 was determined as 170 nM.
For the compound `CCOC(=O)N1CCC(N(C)Cc2cnn(-c3ccc(-c4ccccc4)cc3)c2-c2ccccc2F)CC1` [(110), Ethyl 4-{[1-biphenyl-4-yl-5-(2-fluorophenyl)-1H-pyrazol-4-ylmethyl]methylamino}piperidine-1-carboxylate], the IC50 was found to be 170 nM.
The same measure, in the same setting: in the case of `CN1CCN(Cc2cnn(-c3ccc(-c4ccc(F)cc4)cc3)c2-c2ccccc2F)CC1` [(64), 1-[1-(4′-Fluorobiphenyl-4-yl)-5-(2-fluorophenyl)-1H-pyrazol-4-ylmethyl]-4-methylpiperazine] it was 7.8 nM.
Still for that read-out and setting: in the case of `OC1CC2CCC(C1)N2Cc1cnn(-c2ccc(-c3ccccc3)cc2)c1-c1ccccc1F` (stereo not shown) [(83), 8-[1-Biphenyl-4-yl-5-(2-fluorophenyl)-1H-pyrazol-4-ylmethyl]-8-azabicyclo[3.2.1]octan-3-ol] it was 1100 nM; in that of `CN1CCN(Cc2cnn(-c3ccc(-c4ccncc4)cc3)c2-c2ccccc2F)CC1` [(121), 1-[5-(2-Fluorophenyl)-1-(4-pyridin-4-ylphenyl)-1H-pyrazol-4-ylmethyl]-4-methylpiperazine], 77 nM.
As to `NC(=O)CN1CCN(Cc2cnn(-c3ccc(-c4ccccc4)cc3)c2-c2ccccc2F)CC1` [(111), 2-{4-[1-Biphenyl-4-yl-5-(2-fluorophenyl)-1H-pyrazol-4-ylmethyl]piperazin-1-yl}acetamide], the IC50 came to 360 nM.
Still for that read-out and setting: in the case of `Fc1ccccc1-c1c(CN2CCCCCC2)cnn1-c1ccc(-c2ccccc2)cc1` [(31), 1-[1-Biphenyl-4-yl-5-(2-fluorophenyl)-1H-pyrazol-4-ylmethyl]-azepan] it was 48 nM; in that of `NCCNCc1cnn(-c2ccc(-c3ccccc3)cc2)c1-c1ccccc1F` [(76), N^1-[1-Biphenyl-4-yl-5-(2-fluorophenyl)-1H-pyrazol-4-ylmethyl]-ethane-1,2-diamine], 6.5 nM.
Consider `Fc1ccccc1-c1c(CN2CCN3CCc4ccccc4C3C2)cnn1-c1ccc(-c2ccccc2)cc1` (stereo not shown) [(27), 2-[1-Biphenyl-4-yl-5-(2-fluorophenyl)-1H-pyrazol-4-ylmethyl]-1,3,4,6,7,11b-hexahydro-2H-pyrazino[2,1-a]-isoquinoline], for which the IC50 turned out to be 280 nM.
For the compound `Fc1ccccc1-c1c(CN2CCC(Cc3cccnc3)CC2)cnn1-c1ccc(-c2ccccc2)cc1` [(195), 3-{1-[1-Biphenyl-4-yl-5-(2-fluorophenyl)-1H-pyrazol-4-ylmethyl]piperidin-4-ylmethyl}pyridine], the 50% inhibitory concentration (IC50) turned out to be 66 nM.
The same measure, in the same setting: next, `CC(C)(C)OC(=O)CNCc1cnn(-c2ccc(-c3ccccc3)cc2)c1-c1cccnc1` [(179), tert-Butyl [(1-biphenyl-4-yl-5-pyridin-3-yl-1H-pyrazol-4-ylmethyl)amino]acetate]: 1000 nM; `CN1CCN(Cc2cnn(-c3ccc(-c4ccccc4)cc3)c2-c2cccnc2)CC1` [(113), 1-(1-Biphenyl-4-yl-5-pyridin-3-yl-1H-pyrazol-4-ylmethyl)-4-methylpiperazine]: 290 nM.
With `COc1ccccc1-c1c(CN2CCN(C)CC2)cnn1-c1ccc(-c2cc(F)ccc2F)cc1` [(71), 1-[1-(2′,5′-Difluorobiphenyl-4-yl)-5-(2-methoxyphenyl)-1H-pyrazol-4-ylmethyl]-4-methylpiperazine], the IC50 stood at 77 nM.
For the compound `CN1CCN(Cc2cnn(-c3ccc(-c4ccc(F)cc4)nc3)c2-c2ccccc2F)CC1` [(116), 1-{5-(2-Fluorophenyl)-1-[6-(4-fluorophenyl)pyridin-3-yl]-1H-pyrazol-4-ylmethyl}-4-methylpiperazine], the IC50 was found to be 120 nM.
Same read-out and setting: next, `CC1CCN(Cc2cnn(-c3ccc(-c4ccccc4)cc3)c2-c2ccccc2F)CC1` [(49), 1-[1-Biphenyl-4-yl-5-(2-fluorophenyl)-1H-pyrazol-4-ylmethyl]-4-methylpiperidine]: 130 nM.
`Fc1ccc(-c2ccc(-n3ncc(CN4CCOCC4)c3-c3ccccc3F)cc2)cc1` [(61), 4-[1-(4′-Fluorobiphenyl-4-yl)-5-(2-fluorophenyl)-1H-pyrazol-4-ylmethyl]morpholine]: the IC50 is 520 nM.
Take `CCOC(=O)CN1CCN(Cc2cnn(-c3ccc(-c4ccccc4)cc3)c2-c2ccccc2F)CC1` [(73), Ethyl {4-[1-biphenyl-4-yl-5-(2-fluorophenyl)-1H-pyrazol-4-ylmethyl]piperazin-1-yl}acetate]: the IC50 was found to be 690 nM.
As for `CN1CCN(NCc2cnn(-c3ccc(-c4ccccc4)cc3)c2-c2ccccc2F)CC1` [(40), [1-Biphenyl-4-yl-5-(2-fluorophenyl)-1H-pyrazol-4-ylmethyl]-(4-methylpiperazin-1-yl)amine], the IC50 stood at 14 nM.

Usually IC50 stands for the concentration needed to halve the response being measured.

For the origin of these results see patent US20060264419A1 (priority 2003, published 2006).
